{
  "source": "patent US20240358693A1",
  "about": "“METHODS OF TREATING PAIN” (Aisa Pharma, Inc., priority 2023, published 2024)",
  "tested_on": "participants with SSc-RP",
  "test": "Average severity of weekly RP attacks (VAS 0-10 cm scale)",
  "type": "in vivo, human",
  "text": "The absolute change in average severity of weekly RP attacks (VAS 0-10 cm scale) from baseline to the end of each Dosing Period was and will be a secondary outcome variable. The sponsor-developed participant-informed diary will be used to record data. Average severity of weekly RP attacks is defined as the total severity scores of RP attacks divided by total number of RP attacks within the last 7 days of each dosing period. Total severity scores of RP attacks during the last 7 days of screening period divided by the total number of RP attacks will be used as baseline for the analysis of all periods. The variable will be calculated similar to frequency data as before.",
  "key": {"[1]": {"conditions": "Cilnidipine 10 mg, n=1, Excluding Outliers, ITT Population - Part A"}, "[2]": {"conditions": "Cilnidipine 10 mg, n=1, ITT Population - Part A"}, "[3]": {"conditions": "Cilnidipine 10 mg, n=1, by Baseline RCS, first subgroup, ITT Population - Part A"}, "[4]": {"conditions": "Cilnidipine 10 mg, Excluding Outliers, ITT Population - Part A"}, "[5]": {"conditions": "Cilnidipine 10 mg, Excluding Outliers, by Baseline RCS, first subgroup, ITT Population - Part A"}, "[6]": {"conditions": "Cilnidipine 10 mg, ITT Population - Part A"}, "[7]": {"conditions": "Cilnidipine 10 mg, first Baseline RCS subgroup block (not named), ITT Part A"}, "[8]": {"conditions": "Cilnidipine 10 mg, first Baseline RCS subgroup block (not named), ITT Part A, score 0-10"}, "[9]": {"conditions": "Cilnidipine 20 mg, n=2, Excluding Outliers, ITT Population - Part A"}, "[10]": {"conditions": "Cilnidipine 20 mg, n=2, ITT Population - Part A"}, "[11]": {"conditions": "Cilnidipine 20 mg, n=2, by Baseline RCS, first subgroup, ITT Population - Part A"}, "[12]": {"conditions": "Cilnidipine 20 mg, Excluding Outliers, ITT Population - Part A"}, "[13]": {"conditions": "Cilnidipine 20 mg, Excluding Outliers, by Baseline RCS, first subgroup, ITT Population - Part A"}},
  "data": [
    {"smiles": "COCCOC(=O)C1=C(C)NC(C)=C(C(=O)OC/C=C/c2ccccc2)C1c1cccc([N+](=O)[O-])c1", "note": "(stereo not shown) [Cilnidipine, cilnidipine]", "values": [
      {"measurement": "Average Severity (0-10) of Weekly Symptomatic RP Attacks, Mean", "setting": "[1]", "value": 3.77},
      {"measurement": "Average Severity (0-10) of Weekly Symptomatic RP Attacks, Median", "setting": "[1]", "value": 3.77},
      {"measurement": "Average Severity of Weekly Symptomatic RP Attacks, Change from Baseline, Mean", "setting": "[1]", "value": 0.28},
      {"measurement": "Average Severity of Weekly Symptomatic RP Attacks, Change from Baseline, Median", "setting": "[1]", "value": 0.28},
      {"measurement": "Average Severity of Weekly Symptomatic RP Attacks, Percent Change from Baseline, Mean", "setting": "[1]", "value": 8.05, "unit": "%"},
      {"measurement": "Average Severity of Weekly Symptomatic RP Attacks, Percent Change from Baseline, Median", "setting": "[1]", "value": 8.05, "unit": "%"},
      {"measurement": "Average Severity (0-10) of Weekly Symptomatic RP Attacks, Mean", "setting": "[2]", "value": 3.77},
      {"measurement": "Average Severity (0-10) of Weekly Symptomatic RP Attacks, Median", "setting": "[2]", "value": 3.77},
      {"measurement": "Average Severity of Weekly Symptomatic RP Attacks, Change from Baseline, Mean", "setting": "[2]", "value": 0.28},
      {"measurement": "Average Severity of Weekly Symptomatic RP Attacks, Change from Baseline, Median", "setting": "[2]", "value": 0.28},
      {"measurement": "Average Severity of Weekly Symptomatic RP Attacks, Percent Change from Baseline, Mean", "setting": "[2]", "value": 8.05, "unit": "%"},
      {"measurement": "Average Severity of Weekly Symptomatic RP Attacks, Percent Change from Baseline, Median", "setting": "[2]", "value": 8.05, "unit": "%"},
      {"measurement": "Average Severity (0-10) of Weekly Symptomatic RP Attacks, Mean", "setting": "[3]", "value": 3.77},
      {"measurement": "Average Severity (0-10) of Weekly Symptomatic RP Attacks, Median", "setting": "[3]", "value": 3.77},
      {"measurement": "Average Severity of Weekly Symptomatic RP Attacks, Change from Baseline, Mean", "setting": "[3]", "value": 0.28},
      {"measurement": "Average Severity of Weekly Symptomatic RP Attacks, Change from Baseline, Median", "setting": "[3]", "value": 0.28},
      {"measurement": "Average Severity of Weekly Symptomatic RP Attacks, Percent Change from Baseline, Mean", "setting": "[3]", "value": 8.05, "unit": "%"},
      {"measurement": "Average Severity of Weekly Symptomatic RP Attacks, Percent Change from Baseline, Median", "setting": "[3]", "value": 8.05, "unit": "%"},
      {"measurement": "Average Severity of Weekly RP Attacks (All Attacks), Change from Baseline, Mean", "setting": "[4]", "value": 0.02},
      {"measurement": "Average Severity of Weekly RP Attacks (All Attacks), Change from Baseline, Median", "setting": "[4]", "value": 0.02},
      {"measurement": "Average Severity of Weekly RP Attacks (All Attacks), Mean", "setting": "[4]", "value": 3.05},
      {"measurement": "Average Severity of Weekly RP Attacks (All Attacks), Median", "setting": "[4]", "value": 3.05},
      {"measurement": "Average Severity of Weekly RP Attacks (All Attacks), Percent Change from Baseline, Mean", "setting": "[4]", "value": 0.55, "unit": "%"},
      {"measurement": "Average Severity of Weekly RP Attacks (All Attacks), Percent Change from Baseline, Median", "setting": "[4]", "value": 0.55, "unit": "%"},
      {"measurement": "Average Severity of Weekly Symptomatic RP Attacks (Mean)", "setting": "[5]", "value": 3.77},
      {"measurement": "Average Severity of Weekly Symptomatic RP Attacks (Median)", "setting": "[5]", "value": 3.77},
      {"measurement": "Average Severity of Weekly Symptomatic RP Attacks, Change from Baseline, Mean", "setting": "[5]", "value": 0.28},
      {"measurement": "Average Severity of Weekly Symptomatic RP Attacks, Change from Baseline, Median", "setting": "[5]", "value": 0.28},
      {"measurement": "Average Severity of Weekly Symptomatic RP Attacks, Percent Change from Baseline, Mean", "setting": "[5]", "value": 8.05, "unit": "%"},
      {"measurement": "Average Severity of Weekly Symptomatic RP Attacks, Percent Change from Baseline, Median", "setting": "[5]", "value": 8.05, "unit": "%"},
      {"measurement": "Average Severity of Weekly RP Attacks (All Attacks), Change from Baseline, Mean", "setting": "[6]", "value": 0.02},
      {"measurement": "Average Severity of Weekly RP Attacks (All Attacks), Change from Baseline, Median", "setting": "[6]", "value": 0.02},
      {"measurement": "Average Severity of Weekly RP Attacks (All Attacks), Mean", "setting": "[6]", "value": 3.05},
      {"measurement": "Average Severity of Weekly RP Attacks (All Attacks), Median", "setting": "[6]", "value": 3.05},
      {"measurement": "Average Severity of Weekly RP Attacks (All Attacks), Percent Change from Baseline, Mean", "setting": "[6]", "value": 0.55, "unit": "%"},
      {"measurement": "Average Severity of Weekly RP Attacks (All Attacks), Percent Change from Baseline, Median", "setting": "[6]", "value": 0.55, "unit": "%"},
      {"measurement": "Average Severity of Weekly RP Attacks (All Attacks), Percent Change from Baseline, Mean", "setting": "[7]", "value": 0.55, "unit": "%"},
      {"measurement": "Average Severity of Weekly RP Attacks (All Attacks), Percent Change from Baseline, Median", "setting": "[7]", "value": 0.55, "unit": "%"},
      {"measurement": "Average Severity of Weekly RP Attacks (All Attacks), Change from Baseline, Mean", "setting": "[8]", "value": 0.02},
      {"measurement": "Average Severity of Weekly RP Attacks (All Attacks), Change from Baseline, Median", "setting": "[8]", "value": 0.02},
      {"measurement": "Average Severity of Weekly RP Attacks (All Attacks), Mean", "setting": "[8]", "value": 3.05},
      {"measurement": "Average Severity of Weekly RP Attacks (All Attacks), Median", "setting": "[8]", "value": 3.05},
      {"measurement": "Average Severity (0-10) of Weekly Symptomatic RP Attacks, Mean", "setting": "[9]", "value": 2.30},
      {"measurement": "Average Severity (0-10) of Weekly Symptomatic RP Attacks, Median", "setting": "[9]", "value": 2.30},
      {"measurement": "Average Severity of Weekly Symptomatic RP Attacks, Change from Baseline, Mean", "setting": "[9]", "value": "−1.44"},
      {"measurement": "Average Severity of Weekly Symptomatic RP Attacks, Change from Baseline, Median", "setting": "[9]", "value": "−1.44"},
      {"measurement": "Average Severity of Weekly Symptomatic RP Attacks, Percent Change from Baseline, Mean", "setting": "[9]", "value": "−32.85", "unit": "%"},
      {"measurement": "Average Severity of Weekly Symptomatic RP Attacks, Percent Change from Baseline, Median", "setting": "[9]", "value": "−32.85", "unit": "%"},
      {"measurement": "Average Severity (0-10) of Weekly Symptomatic RP Attacks, Mean", "setting": "[10]", "value": 2.30},
      {"measurement": "Average Severity (0-10) of Weekly Symptomatic RP Attacks, Median", "setting": "[10]", "value": 2.30},
      {"measurement": "Average Severity of Weekly Symptomatic RP Attacks, Change from Baseline, Mean", "setting": "[10]", "value": "−1.44"},
      {"measurement": "Average Severity of Weekly Symptomatic RP Attacks, Change from Baseline, Median", "setting": "[10]", "value": "−1.44"},
      {"measurement": "Average Severity of Weekly Symptomatic RP Attacks, Percent Change from Baseline, Mean", "setting": "[10]", "value": "−32.85", "unit": "%"},
      {"measurement": "Average Severity of Weekly Symptomatic RP Attacks, Percent Change from Baseline, Median", "setting": "[10]", "value": "−32.85", "unit": "%"},
      {"measurement": "Average Severity (0-10) of Weekly Symptomatic RP Attacks, Mean", "setting": "[11]", "value": 2.30},
      {"measurement": "Average Severity (0-10) of Weekly Symptomatic RP Attacks, Median", "setting": "[11]", "value": 2.30},
      {"measurement": "Average Severity of Weekly Symptomatic RP Attacks, Change from Baseline, Mean", "setting": "[11]", "value": "−1.44"},
      {"measurement": "Average Severity of Weekly Symptomatic RP Attacks, Change from Baseline, Median", "setting": "[11]", "value": "−1.44"},
      {"measurement": "Average Severity of Weekly Symptomatic RP Attacks, Percent Change from Baseline, Mean", "setting": "[11]", "value": "−32.85", "unit": "%"},
      {"measurement": "Average Severity of Weekly Symptomatic RP Attacks, Percent Change from Baseline, Median", "setting": "[11]", "value": "−32.85", "unit": "%"},
      {"measurement": "Average Severity of Weekly RP Attacks (All Attacks), Change from Baseline, Mean", "setting": "[12]", "value": "−1.07"},
      {"measurement": "Average Severity of Weekly RP Attacks (All Attacks), Change from Baseline, Median", "setting": "[12]", "value": "−1.07"},
      {"measurement": "Average Severity of Weekly RP Attacks (All Attacks), Mean", "setting": "[12]", "value": 2.30},
      {"measurement": "Average Severity of Weekly RP Attacks (All Attacks), Median", "setting": "[12]", "value": 2.30},
      {"measurement": "Average Severity of Weekly RP Attacks (All Attacks), Percent Change from Baseline, Mean", "setting": "[12]", "value": "−27.26", "unit": "%"},
      {"measurement": "Average Severity of Weekly RP Attacks (All Attacks), Percent Change from Baseline, Median", "setting": "[12]", "value": "−27.26", "unit": "%"},
      {"measurement": "Average Severity of Weekly Symptomatic RP Attacks (Mean)", "setting": "[13]", "value": 2.30},
      {"measurement": "Average Severity of Weekly Symptomatic RP Attacks (Median)", "setting": "[13]", "value": 2.30},
      {"measurement": "Average Severity of Weekly Symptomatic RP Attacks, Change from Baseline, Mean", "setting": "[13]", "value": "−1.44"},
      {"measurement": "Average Severity of Weekly Symptomatic RP Attacks, Change from Baseline, Median", "setting": "[13]", "value": "−1.44"},
      {"measurement": "Average Severity of Weekly Symptomatic RP Attacks, Percent Change from Baseline, Mean", "setting": "[13]", "value": "−32.85", "unit": "%"},
      {"measurement": "Average Severity of Weekly Symptomatic RP Attacks, Percent Change from Baseline, Median", "setting": "[13]", "value": "−32.85", "unit": "%"},
      {"measurement": "Average Severity of Weekly RP Attacks (All Attacks), Change from Baseline, Mean", "setting": "Cilnidipine 20 mg, ITT Population - Part A", "value": "−1.07"}
    ]}
  ]
}
